This is an account of results in patent publication US20250235547A1, “ANTIBODY-DRUG CONJUGATE” (UBE Corporation, priority 2022, published 2025).

pIC50: −log10 of the molar value. Numbered stars: 1 amine (or outer) side, 2 acyl side, 3 side chain; on linkers, the order of the positions; unused ones are H or OH. Square brackets hold non-standard residues; d marks the D form. Peptide text beside a SMILES is read from it. * marks the point of attachment. X4 = COC(=O)C1OC(O[C@@H](c2ccccc2)[C@@H](C)N*)C(OC(C)=O)C(OC(C)=O)C1OC(C)=O; Dolaproine = CO[C@@H]([C@@H]1CCCN1)[C@@H](C)C(=O)O; Hexanoyl(6-maleimido) = O=C1C=CC(=O)N1CCCCCC(=O)*; Propanoyl(3-maleimido) = O=C1C=CC(=O)N1CCC(=O)*; Dil = CC[C@H](C)[C@H](NC)[C@@H](CC(=O)O)OC; X3 = C[C@@H](N*)[C@@H](OP(=O)(O)O)c1ccccc1; PABC = O=C(OCc1ccc(N[*:1])cc1)[*:2]; X1 = C[C@@H](N*)[C@@H](O)c1ccccc1; hSer(lactone) = O=C1OCC[C@@H]1N*; Cit = NC(=O)NCCC[C@H](N)C(=O)O; PEG4 = NCCOCCOCCOCCOCCC(=O)O; NMeV = CN[C@H](C(=O)O)C(C)C

The nature of series [1]: Retention time in HPLC of reactive precursor (index of hydrophilicity). Format: physicochemical. The conditions noted are these: BEH C18, 0.1% formic acid water/acetonitrile gradient, 40° C. Here is the method:
As an index of hydrophilicity of the reactive precursor (Compound (III)), the retention time (RT) in HPLC analysis was measured, and compared.

The next series deals with T1, porcine tubulin (Sus scrofa, UniProt P02550+P02554).
T1 construct: purchased Cytoskeleton, Inc. BK011P
T1 sequence (P02554 whole entry): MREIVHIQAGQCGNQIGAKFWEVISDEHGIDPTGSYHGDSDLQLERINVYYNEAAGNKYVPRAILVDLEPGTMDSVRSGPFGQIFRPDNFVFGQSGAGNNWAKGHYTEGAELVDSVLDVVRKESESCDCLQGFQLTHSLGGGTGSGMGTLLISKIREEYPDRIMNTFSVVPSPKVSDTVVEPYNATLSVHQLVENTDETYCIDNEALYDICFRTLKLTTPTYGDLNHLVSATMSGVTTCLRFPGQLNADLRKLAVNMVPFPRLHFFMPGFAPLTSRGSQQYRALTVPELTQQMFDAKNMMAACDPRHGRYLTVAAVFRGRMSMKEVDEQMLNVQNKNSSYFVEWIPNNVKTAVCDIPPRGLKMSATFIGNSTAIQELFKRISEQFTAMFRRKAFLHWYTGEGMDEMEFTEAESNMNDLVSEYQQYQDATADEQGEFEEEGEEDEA
T1 sequence (P02550 whole entry): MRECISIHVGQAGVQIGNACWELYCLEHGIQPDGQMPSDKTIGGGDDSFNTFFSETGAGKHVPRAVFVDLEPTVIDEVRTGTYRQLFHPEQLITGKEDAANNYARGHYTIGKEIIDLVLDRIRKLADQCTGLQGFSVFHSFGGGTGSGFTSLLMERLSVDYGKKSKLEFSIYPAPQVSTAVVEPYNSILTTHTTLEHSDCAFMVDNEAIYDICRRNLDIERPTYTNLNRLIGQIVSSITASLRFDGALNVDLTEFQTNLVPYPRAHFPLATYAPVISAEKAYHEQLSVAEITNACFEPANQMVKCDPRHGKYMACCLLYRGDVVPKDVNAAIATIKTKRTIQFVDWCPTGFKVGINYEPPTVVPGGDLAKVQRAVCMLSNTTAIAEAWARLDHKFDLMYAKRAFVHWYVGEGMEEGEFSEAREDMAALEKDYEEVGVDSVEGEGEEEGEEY
The series can be described thus: Tubulin polymerization inhibition test. The class given is biochemical. Conditions: fluorescence, 37° C., 60 minutes. As for the experimental part:
For measuring the tubulin polymerization inhibitory action, Tubulin Polymerization Assay Kit (manufactured by Cytoskeleton, Inc., BK011P) was used. A PIPES buffer containing porcine tubulin, GTP, MgCl2, EGTA, Glycerol, and a fluorescent reporter was prepared under ice-cooling as a reaction solution. The reaction solution was ice-cooled until it was used. A test compound solution was prepared by an aqueous solution containing 1.5% DMSO, and added to a 96 well plate (manufactured by Corning Inc., 3686) at 5 μL/well. The reaction solution was added thereto at 50 μL/well, the plate was placed in a microplate reader (FlexStation 3, manufactured by Molecular Device, LLC) in which the internal temperature was set to 37° C. in advance, and the fluorescence intensity measurement (excitation wavelength: 360 nm, detection wavelength: 420 nm) of each well was started. The fluorescence intensity was measured once every minute, and the measurement was continued for 60 minutes.
The tubulin polymerization inhibition rate (%) was calculated by the following equation.
Amount of fluorescence intensity increase: (average fluorescence intensity after 51 to 60 minutes from measurement start)−(average fluorescence intensity after 1 to 6 minutes from measurement start)

In general, pIC50 refers to −log10 of the IC50, conventionally taken in molar units.

As to `C=C1C[C@@H]2CC[C@@]34C[C@H]5O[C@H]6[C@@H](O3)[C@H]3O[C@H](CC[C@@H]3O[C@H]6[C@H]5O4)CC(=O)C[C@@H]3[C@@H](OC)[C@@H](C[C@@H](CCNC(=O)OCc4ccc(NC(=O)[C@H](CCCNC(N)=O)NC(=O)[C@@H](NC(=O)[C@H](CC(=O)N[C@H]5CCOC5=O)NC(=O)CCOCCOCCOCCOCCNC(=O)[C@H](CNC(=O)CCP(=O)(O)O)N5C(=O)C=CC5=O)C(C)C)cc4)OP(=O)(O)O)O[C@H]3C[C@H]3O[C@@H](CC[C@@H]1O2)C[C@@H](C)C3=C` [Reference Example 26], in series [1], the “Retention time in HPLC measurement” value came out at 0.91 min.
With `CC[C@H](C)[C@@H]([C@@H](CC(=O)N1CCC[C@H]1[C@H](OC)[C@@H](C)C(=O)N[C@H](C)[C@@H](OC1OC(C(=O)OC)C(OC(C)=O)C(OC(C)=O)C1OC(C)=O)c1ccccc1)OC)N(C)C(=O)[C@@H](NC(=O)[C@@H](NC)C(C)C)C(C)C` (some centres unmarked) [Example U-014] (H-[NMeV]V[Dil][Dolaproine]-X4), the pIC50 against porcine tubulin was at least 5.52.
As for `CC[C@H](C)[C@@H]([C@@H](CC(=O)N1CCC[C@H]1[C@H](OC)[C@@H](C)C(=O)N[C@H](C)[C@@H](OP(=O)(O)OCc1ccc(NC(=O)[C@H](CCCNC(N)=O)NC(=O)[C@@H](NC(=O)[C@H](CC(=O)N[C@H]2CCOC2=O)NC(=O)CCOCCOCCOCCOCCNC(=O)[C@H](CNC(=O)CCP(=O)(O)O)N2C(=O)C=CC2=O)C(C)C)cc1)c1ccccc1)OC)N(C)C(=O)[C@@H](NC(=O)[C@H](C(C)C)N(C)C)C(C)C` [Reference Example 3], in series [1], the “Retention time in HPLC measurement” value came out at 0.70 min.
Consider `CC[C@H](C)[C@@H]([C@@H](CC(=O)N1CCC[C@H]1C(OC)[C@@H](C)C(=O)N[C@H](C)[C@@H](O)c1ccccc1)OC)N(C)C(=O)[C@@H](NC(=O)[C@H](C(C)C)N(C)C(=O)OCc1ccc(NC(=O)[C@H](CCCNC(N)=O)NC(=O)[C@@H](NC(=O)[C@H](CC(=O)NC2CCOC2=O)NC(=O)[C@H](CC(=O)N[C@H]2CCOC2=O)NC(=O)[C@H](CC(=O)N[C@H]2CCOC2=O)NC(=O)[C@H](CC(=O)N[C@H]2CCOC2=O)NC(=O)[C@H](CC(=O)NC2CCOC2=O)NC(=O)CCOCCOCCOCCOCCNC(=O)CCN2C(=O)C=CC2=O)C(C)C)cc1)C(C)C` (stereo in doubt) [Reference Example 6], for which the “Retention time in HPLC measurement” value in series [1] came out at 1.09 min.
Take `CC[C@H](C)[C@@H]([C@@H](CC(=O)N1CCC[C@H]1[C@H](OC)[C@@H](C)C(=O)N[C@H](C)[C@@H](O)c1ccccc1)OC)N(C)C(=O)[C@@H](NC(=O)[C@H](C(C)C)N(C)Cc1cc([N+](=O)[O-])ccc1F)C(C)C` [Example U-008]: the pIC50 against porcine tubulin was at least 5.52.
On to `CC[C@H](C)[C@@H]([C@@H](CC(=O)N1CCC[C@H]1[C@H](OC)[C@@H](C)C(=O)N[C@H](C)[C@@H](OP(=O)(O)O)c1ccccc1)OC)N(C)C(=O)[C@@H](NC(=O)[C@H](C(C)C)N(C)C(=O)OCc1ccc(NC(=O)[C@H](CCCNC(N)=O)NC(=O)[C@@H](NC(=O)[C@H](CC(=O)N[C@H]2CCOC2=O)NC(=O)CCOCCOCCOCCOCCNC(=O)CCN2C(=O)C=CC2=O)C(C)C)cc1)C(C)C` [Reference Example 2] ({Propanoyl(3-maleimido)-PEG4}-D(hSer(lactone))V[Cit][PABC][NMeV]V[Dil][Dolaproine]-X3), for which, in series [1], the “Retention time in HPLC measurement” value amounted to 0.96 min.
For the compound `C=C1C[C@@H]2CC[C@@]34C[C@H]5O[C@H]6[C@@H](O3)[C@H]3O[C@H](CC[C@@H]3O[C@H]6[C@H]5O4)CC(=O)C[C@@H]3[C@@H](OC)[C@@H](C[C@H](O)CNC(=O)OCc4ccc(NC(=O)[C@H](CCCNC(N)=O)NC(=O)[C@@H](NC(=O)CCOCCOCCN5C(=O)C=CC5=O)C(C)C)cc4)O[C@H]3C[C@H]3O[C@@H](CC[C@@H]1O2)C[C@@H](C)C3=C` [Mal-PEG2-Val-Cit-PAB-Eribulin, reference compound], the “Retention time in HPLC measurement” value in series [1] stood at 1.19 min.
For the compound `CC[C@H](C)[C@@H]([C@@H](CC(=O)N1CCC[C@H]1[C@H](OC)[C@@H](C)C(=O)N[C@H](C)[C@@H](O)c1ccccc1)OC)N(C)C(=O)[C@@H](NC(=O)[C@H](C(C)C)N(C)C(=O)OCc1ccc(NC(=O)[C@H](CCCNC(N)=O)NC(=O)[C@@H](NC(=O)CCCCCN2C(=O)C=CC2=O)C(C)C)cc1)C(C)C` [MC-Val-Cit-PAB-MMAE, reference compound] ({Hexanoyl(6-maleimido)}-V[Cit][PABC][NMeV]V[Dil][Dolaproine]-X1), in series [1], the “Retention time in HPLC measurement” value came out at 1.24 min.
